The values that follow come from patent US10730911B2, “Backbone-cyclized peptidomimetics with GLP-1R modulating activity” (POLYPHOR AG, priority 2015, dated 2020).

Where a SMILES comes first, the peptide text is derived from it. [ ]: non-standard residue; d: D form. The star is where a group is joined. Trp(5-OH) = N[C@@H](Cc1c[nH]c2ccc(O)cc12)C(=O)O; His(π-Bn) = N[C@@H](Cc1cncn1Cc1ccccc1)C(=O)O; 3Pal = N[C@@H](Cc1cccnc1)C(=O)O; Aad = N[C@@H](CCCC(=O)O)C(=O)O; Cit = NC(=O)NCCC[C@H](N)C(=O)O; Phg = N[C@H](C(=O)O)c1ccccc1; Ac8c = NC1(C(=O)O)CCCCCCC1; Ac6c = NC1(C(=O)O)CCCCC1; Aib = CC(C)(N)C(=O)O; Bn = c1ccc(C*)cc1

The term EC50 denotes the concentration that produces a half-maximal response.

For this assay, the target named is T1, human glucagon-like peptide-1 receptor (GLP-1R) (Homo sapiens, UniProt P43220).
T1 construct: host or cells: CHO chAMPion cells
T1 sequence (P43220 24-463): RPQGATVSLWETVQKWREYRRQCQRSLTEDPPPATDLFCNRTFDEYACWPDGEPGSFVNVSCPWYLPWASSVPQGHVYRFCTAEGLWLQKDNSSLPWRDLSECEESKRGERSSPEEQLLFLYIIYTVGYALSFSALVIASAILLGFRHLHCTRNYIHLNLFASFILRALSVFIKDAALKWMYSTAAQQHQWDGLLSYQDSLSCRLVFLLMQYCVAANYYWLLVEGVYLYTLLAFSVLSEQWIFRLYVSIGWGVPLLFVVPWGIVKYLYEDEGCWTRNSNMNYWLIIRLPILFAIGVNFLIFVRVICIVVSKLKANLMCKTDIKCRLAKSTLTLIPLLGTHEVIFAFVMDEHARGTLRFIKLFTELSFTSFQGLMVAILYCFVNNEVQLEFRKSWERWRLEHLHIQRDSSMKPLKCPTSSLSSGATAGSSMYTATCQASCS
Description: Human GLP-1 receptor cell-based assay (flash luminescence, Target Activation phase). The note with it: CHO chAMPion cells stably co-expressing human GLP-1R, Photina and cAMP-activated calcium channel; agonist activity; normalization by forskolin at 10 μM; ^a) values from single experiment; read-out: EC50 (μM) Target Activation (TA). The text has this: CHO chAMPion cells (Axxam SpA; S. Corazza, Assay Drug Dev. Technol. 2009, 7, 304-307) stably co-expressing the human glucagon-like peptide-1 receptor (GLP-1R), the Ca^2+-sensitive photoprotein PHOTINA® (S. Bovolenta et al., J. Biomol. Screen. 2007, 12, 694-704) and a mutated cAMP-activated calcium ion channel (WO2004/083803 A2) were used to monitor GLP-1R signaling after stimulation with an agonist. Activation of the Gas-coupled GPCR GLP-1R was monitored by measuring the flash luminescence of the Ca^2+-sensitive photoprotein as reporter system with FLIPR^TETRA screening instrumentation (Molecular Devices) upgraded with an ICCD Camera (MDC). For data quality check and data analysis the Genedata SCREENER® software was used.
The reference agonist GLP-1 (glucagon-like peptide-1 amide fragment 7-36) and forskolin were purchased from Sigma (cat. G8147 and F6886, respectively) and prepared according to each ligand's specifications. All handling of ligands were done to ensure proper control throughout the experiments. The steps of the implemented workflow and data analysis are mainly as follows:
Stably transfected chAMPion cells are seeded 10000 c/w in 384 MTP in Dulbecco's MEM/nutrient mix F12 (BioWhittaker cat. BE04-687F/U1; 500 mL) supplemented with sodium pyruvate (BioWhittaker cat. BE13-115E; 5 mL of 100 mM solution), HEPES (BioWhittaker cat. BE17-737E; 6.5 mL of 1M solution), sodium bicarbonate (BioWhittaker cat. BE17-613E; 25 mL of 7.5% solution), fetal bovine serum (Euroclone cat. ECS 0180L; 50 mL), penicillin-streptomycin (BioWhittaker cat. DE17-602E; 5 mL of 100×solution), 1 mg/mL G418 (selection antibiotic for GLP-1R) and 200 μg/mL hygromycin in 25 μL/well for 24 hours. On the day of the experiment, plates are removed from the incubator, freed from the growth medium, equilibrated at room temperature for 1 h, loaded with 30 μl/well of Ca^2+ free Tyrode's buffer containing 20 μM coelentrazine and 500 μM IBMX, and incubated for 4 hours at room temperature.
All compounds were tested at 8 concentrations, starting from 50 μM in quadruplicate, intra-plate (dilution step 1:2.15) to determine EC50 values. After incubation, the volume in all the wells is flattened to 20 αL by aspiration with a CYBIO®-VARIO pipettor. First Injection (10 μL of test compounds in Ca^2+ free Tyrode's buffer, DMSO 0.5% v/v and BSA 0.01%; or 10 μL of reference compounds GLP-1 or forskolin in Ca′ free Tyrode's buffer, DMSO 0.5% v/v and BSA 0.01%) is performed by the FLIPR^TETRA and the kinetic response is optionally monitored over a period of 60 seconds. Incubation for 30 minutes at room temperature is followed by the Second Injection (Tyrode's buffer+10 mM CaCl2)) and the kinetic response is monitored over a period of 60 seconds.
The kinetic response is divided into two distinct phases: monitoring the kinetic response after the First Injection, termed Compound Addition (CA), and monitoring the kinetic response after the Second Injection of 10 mM CaCl2, termed Target Activation (TA). Agonist activity of compounds is evaluated in the Target Activation (TA) phase and it is based on normalization to TA activation by forskolin at 10 μM or GLP-1 at 3.16 nM (EC100)
A good correlation was observed between EC50, data normalized by forskolin and by GLP-1.
On to `CC(C)C[C@@H]1NC(=O)[C@H](CCC(N)=O)NC(=O)[C@H](Cc2ccccc2)NC(=O)C2(CCCCC2)NC(=O)[C@H]2CCCN2C(=O)[C@H](Cc2ccc(O)cc2)NC(=O)[C@H](CCCC(=O)O)NC(=O)[C@H](Cc2c[nH]c3ccccc23)NC(=O)[C@H](C)NC(=O)[C@H](Cc2ccc(O)cc2)NC1=O` [compound 49, cyclo(-Phe-Gln-Leu-Tyr-Ala-Trp-Hgl-Tyr-^DPro-Chx-)] (cyclo(FQLYAW[Aad]Y[dP][Ac6c])), for which the EC50 was determined as 3.1 µM. Turning to `C[C@@H]1NC(=O)[C@H](Cc2ccc(O)cc2)NC(=O)[C@H](CCC(N)=O)NC(=O)[C@H](Cc2c[nH]c3ccc(O)cc23)NC(=O)[C@H](Cc2ccccc2)NC(=O)C2(CCCCC2)NC(=O)[C@H]2CCCN2C(=O)[C@H](Cc2ccc(O)cc2)NC(=O)[C@H](CCC(=O)O)NC(=O)[C@H](Cc2c[nH]c3ccccc23)NC1=O` [compound 35, cyclo(-Phe-Trp(5OH)-Gln-Tyr-Ala-Trp-Glu-Tyr-^DPro-Chx-)] (cyclo(F[Trp(5-OH)]QYAWEY[dP][Ac6c])), the EC50 stood at 1.1 ± 0.5 µM. With `CC(C)C[C@@H]1NC(=O)[C@H](CC(C)C)NC(=O)[C@H](CCC(=O)O)NC(=O)[C@H](Cc2ccccc2)NC(=O)C2(CCCCCCC2)NC(=O)[C@H]2CCCN2C(=O)[C@H](Cc2ccccc2)NC(=O)[C@H](CCC(=O)O)NC(=O)[C@H](Cc2c[nH]c3ccccc23)NC(=O)[C@H](C)NC1=O` [compound 54, cyclo(-Phe-Glu-Leu-Leu-Ala-Trp-Glu-Phe-^DPro-Ac8c-)] (cyclo(FELLAWEF[dP][Ac8c])) the figure was 1.1 µM; with `C[C@@H]1NC(=O)[C@H](Cc2ccc(O)cc2)NC(=O)[C@H](CCC(N)=O)NC(=O)[C@H](Cc2ccccc2)NC(=O)[C@H](Cc2ccccc2)NC(=O)C2(CCCCC2)NC(=O)[C@H]2CCCN2C(=O)[C@H](Cc2ccc(O)cc2)NC(=O)[C@H](CCC(=O)O)NC(=O)[C@H](Cc2c[nH]c3ccccc23)NC1=O` [Ex. 1, cyclo(-Phe-Phe-Gln-Tyr-Ala-Trp-Glu-Tyr-^DPro-Chx-)] (cyclo(FFQYAWEY[dP][Ac6c])), 0.09 ± 0.05 µM. With `C[C@@H]1NC(=O)[C@H](Cc2ccc(O)cc2)NC(=O)[C@H](CCC(N)=O)NC(=O)[C@H](Cc2c[nH]c3ccccc23)NC(=O)[C@H](Cc2ccccc2)NC(=O)C2(CCCCC2)NC(=O)[C@H]2CCCN2C(=O)[C@H](Cc2ccc(OCc3ccccc3)cc2)NC(=O)[C@H](CCC(=O)O)NC(=O)[C@H](Cc2c[nH]c3ccccc23)NC1=O` [compound 22, cyclo(-Phe-Trp-Gln-Tyr-Ala-Trp-Glu-Tyr(Bn)-^DPro-Chx-)] (cyclo(FWQYAWEY(Bn)[dP][Ac6c])) the figure was 0.72 ± 0.4 µM; with `CC(C)C[C@@H]1NC(=O)[C@H](CCC(=O)O)NC(=O)[C@H](Cc2ccccc2)NC(=O)C2(CCCCC2)NC(=O)[C@H]2CCCN2C(=O)[C@H](c2ccccc2)NC(=O)[C@H](CCC(=O)O)NC(=O)[C@H](Cc2c[nH]c3ccccc23)NC(=O)[C@H](C)NC(=O)[C@H](Cc2ccc(O)cc2)NC1=O` [compound 50, cyclo(-Phe-Glu-Leu-Tyr-Ala-Trp-Glu-Phg-^DPro-Chx-)] (cyclo(FELYAWE[Phg][dP][Ac6c])), 2.4 µM; with `CC(C)C[C@@H]1NC(=O)[C@H](CC(C)C)NC(=O)[C@H](CCC(=O)O)NC(=O)[C@H](Cc2ccccc2)NC(=O)C(C)(C)NC(=O)[C@H]2CCCN2C(=O)[C@H](Cc2ccccc2)NC(=O)[C@H](CCC(=O)O)NC(=O)[C@H](Cc2c[nH]c3ccccc23)NC(=O)[C@H](C)NC1=O` [compound 45, cyclo(-Phe-Glu-Leu-Leu-Ala-Trp-Glu-Phe-^DPro-Aib-)] (cyclo(FELLAWEF[dP][Aib])), 1.8 µM.

As for `COc1ccc(C[C@@H]2NC(=O)[C@H](CC(C)C)NC(=O)[C@H](CCC(=O)O)NC(=O)[C@H](Cc3ccccc3)NC(=O)C3(CCCCC3)NC(=O)[C@H]3CCCN3C(=O)[C@H](Cc3ccc(O)cc3)NC(=O)[C@H](CCC(=O)O)NC(=O)[C@H](Cc3c[nH]c4ccccc34)NC(=O)[C@H](C)NC2=O)cc1` [compound 29, cyclo(-Phe-Glu-Leu-Tyr(Me)-Ala-Trp-Glu-Tyr-^DPro-Chx-)] (cyclo(FELY(Me)AWEY[dP][Ac6c])), the EC50 was found to be 0.62 µM. To `COc1ccc(C[C@@H]2NC(=O)[C@H](CCC(=O)O)NC(=O)[C@H](Cc3c[nH]c4ccccc34)NC(=O)[C@H](C)NC(=O)[C@H](Cc3ccc(O)cc3)NC(=O)[C@H](CCC(N)=O)NC(=O)[C@H](Cc3c[nH]c4ccccc34)NC(=O)[C@H](Cc3ccccc3)NC(=O)C3(CCCCC3)NC(=O)[C@H]3CCCN3C2=O)cc1` [compound 9, cyclo(-Phe-Trp-Gln-Tyr-Ala-Trp-Glu-Tyr(Me)-^DPro-Chx-)] (cyclo(FWQYAWEY(Me)[dP][Ac6c])) belongs 0.8 ± 0.69 µM; to `COc1ccc(C[C@@H]2NC(=O)[C@H](CCC(N)=O)NC(=O)[C@H](Cc3c[nH]c4ccccc34)NC(=O)[C@H](Cc3ccccc3)NC(=O)C3(CCCCC3)NC(=O)[C@H]3CCCN3C(=O)[C@H](Cc3ccc(O)cc3)NC(=O)[C@H](CCC(=O)O)NC(=O)[C@H](Cc3c[nH]c4ccccc34)NC(=O)[C@H](C)NC2=O)cc1` [compound 8, cyclo(-Phe-Trp-Gln-Tyr(Me)-Ala-Trp-Glu-Tyr-^DPro-Chx-)] (cyclo(FWQY(Me)AWEY[dP][Ac6c])), 0.35 ± 0.3 µM. In the case of `CC(C)C[C@@H]1NC(=O)[C@H](CCC(=O)O)NC(=O)[C@H](Cc2ccccc2)NC(=O)C2(CCCCC2)NC(=O)[C@H]2CCCN2C(=O)[C@H](Cc2ccc(O)cc2)NC(=O)[C@H](CCCNC(N)=O)NC(=O)[C@H](Cc2c[nH]c3ccccc23)NC(=O)[C@H](C)NC(=O)[C@H](Cc2ccc(O)cc2)NC1=O` [compound 38, cyclo(-Phe-Glu-Leu-Tyr-Ala-Trp-Cit-Tyr-^DPro-Chx-)] (cyclo(FELYAW[Cit]Y[dP][Ac6c])), the concentration giving a half-maximal response (EC50) is 0.93 µM. With `COc1ccc(C[C@@H]2NC(=O)[C@H](CCC(N)=O)NC(=O)[C@H](Cc3c[nH]c4ccccc34)NC(=O)[C@H](Cc3ccccc3)NC(=O)C3(CCCCC3)NC(=O)[C@H]3CCCN3C(=O)[C@H](CCCNC(=N)N)NC(=O)[C@H](CCC(=O)O)NC(=O)[C@H](Cc3c[nH]c4ccccc34)NC(=O)[C@H](C)NC2=O)cc1` [compound 23, cyclo(-Phe-Trp-Gln-Tyr(Me)-Ala-Trp-Glu-Arg-^DPro-Chx-)] (cyclo(FWQY(Me)AWER[dP][Ac6c])) the figure was 0.67 ± 0.22 µM; with `CC(C)C[C@@H]1NC(=O)[C@H](CCC(=O)O)NC(=O)[C@H](Cc2ccccc2)NC(=O)C2(CCCCC2)NC(=O)[C@H]2CCCN2C(=O)[C@H](Cc2cccnc2)NC(=O)[C@H](CCC(=O)O)NC(=O)[C@H](Cc2c[nH]c3ccccc23)NC(=O)[C@H](C)NC(=O)[C@H](Cc2ccc(O)cc2)NC1=O` [compound 41, cyclo(-Phe-Glu-Leu-Tyr-Ala-Trp-Glu-3Pal-^DPro-Chx-)] (cyclo(FELYAWE[3Pal][dP][Ac6c])), 0.83 ± 0.6 µM; with `C[C@@H]1NC(=O)[C@H](Cc2ccc(O)cc2)NC(=O)[C@H](CCC(N)=O)NC(=O)[C@H](Cc2c[nH]c3ccccc23)NC(=O)[C@H](Cc2ccccc2)NC(=O)C2(CCCCC2)NC(=O)[C@H]2CCCN2C(=O)[C@H](Cc2cncn2Cc2ccccc2)NC(=O)[C@H](CCC(=O)O)NC(=O)[C@H](Cc2c[nH]c3ccccc23)NC1=O` [compound 15, cyclo(-Phe-Trp-Gln-Tyr-Ala-Trp-Glu-His(Bn)-^DPro-Chx-)] (cyclo(FWQYAWE[His(π-Bn)][dP][Ac6c])), 0.7 ± 0.42 µM. Consider `C[C@@H]1NC(=O)[C@H](Cc2ccccc2)NC(=O)[C@H](CCC(N)=O)NC(=O)[C@H](Cc2c[nH]c3ccccc23)NC(=O)[C@H](Cc2ccccc2)NC(=O)C2(CCCCC2)NC(=O)[C@H]2CCCN2C(=O)[C@H](Cc2ccc(O)cc2)NC(=O)[C@H](CCC(=O)O)NC(=O)[C@H](Cc2c[nH]c3ccccc23)NC1=O` [compound 27, cyclo(-Phe-Trp-Gln-Phe-Ala-Trp-Glu-Tyr-^DPro-Chx-)] (cyclo(FWQFAWEY[dP][Ac6c])), for which the EC50 was found to be 0.58 µM.
